Paper PMC4585259 (Frontiers in Pharmacology, 2015)
Read-outs that look alike come from different tables or passages of the source.

Target: T1, rNav1.2 sodium channels (Rattus norvegicus, UniProt P04775)
T1 construct: host or cells: HEK-293
Experiment: QPatch automated patch clamp, inhibition of sodium currents evoked by 5 Hz trains at three extracellular pH values
Format: cell-based
Conditions: for class of pH-dependence pattern (cluster analysis): Ward's method on 18 variables of affinity, reversibility, onset
Experimental: HEK-293 cells stably expressing rNav1.2 sodium channels were obtained from NeuroSearch (Ballerup, Denmark). The cells were grown in Dulbecco's modified Eagle medium supplemented with 10% FBS. Prior to use, the cells were trypsinized and subsequently kept in suspension in the QPatch cell storage facility in CHO-S- SFM-II medium.
Composition of the extracellular solution was: (in mM): 140 NaCl, 3 KCl, 1 CaCl2 1 MgCl2, 0.1 CdCl2, 20 TEA-Cl, 5 HEPES, adjusted to pH 7.3, Osmolality: 320 mOsm. […] Drugs were synthesized in Gedeon Richter Plc. […] The full list of drugs, with their three-letter codes, concentration, as well as their main therapeutic indication and main mechanism of action are shown in Table 1. […] The choice of concentrations used in this study may seem unusually high.
Data were sampled at a frequency of 25 kHz and filtered at 5 kHz. Junction potential was calculated to be −11 mV and was corrected for. […] Cells having membrane resistance < 500 MOhm, series resistance > 9 MOhm, or capacitance > 22 pF were excluded from analysis. The experimental protocol was also identical to the one used in our previous study: sodium channels were activated by 5 Hz trains of 5 depolarizations (−90 to −10 mV) repeated in every 20 s. In this study, however, the same control–drug-application–washout sequence was repeated four times: at neutral, acidic, alkalic, and again neutral pH. The peak amplitudes of sodium currents throughout the whole experiment are shown plotted against time in Figure 1 and Supplementary Figure 1.
Initial analysis, including subtraction of leak and capacitive artifacts, as well as peak detection were done in the QPatch software. […] All experiments were normalized to the amplitude of the current evoked by the first depolarization of the last train under control conditions. […] For all four drug applications in an experiment, apparent affinity, onset and offset time constants as well as reversibility values were calculated. […] (This method is equivalent to applying the Lineweaver-Burk plot method using a single concentration.) Reversibility values were calculated from control (c), inhibited (i), and wash-out (w) amplitudes as follows: Reversibility = (w-i)/(c-i). Reversibility values should not be regarded as experimental platform-independent properties of compounds. […] However, reversibility values are a valuable source of information regarding physicochemical differences between individual drugs, or between effects of the same drug under different extracellular pH conditions. Onset and offset time constants were determined by single exponential fitting to individual experiments. For neutral pH numerical data were given as the average of the data from the first and the last drug applications. Thin black lines on Figure 1 and Supplemental Figure 1 show the average of five fitted exponentials, (not the exponential fitted to the averaged normalized amplitudes). The numerical values of apparent affinity, onset and offset time constants and reversibility are shown in Table 2, and their relative position is illustrated in Figure 2. Affinity and time constant values were logarithmically transformed for statistics, therefore we show their geometric mean. For recovery data no transformation was done, and we show arithmetic mean values. Significance values were calculated using paired, two-tailed Student's t-test based on five pairs of apparent affinity (log transform), time constant (log transform), or reversibility values obtained from five individual experiments. Because of the large number of comparisons in this study, we accepted p < 0.01 as significant. Cluster analysis was done using Ward's minimum variance method, with Euclidean distance measure. Data were normalized by subtracting the mean (after logarithmic transformation in the case of apparent affinity and time constants), and dividing by the standard deviation.

[1] = pH 6.0, concentration (lidocaine 300 μM, memantine 30 μM)
[2] = pH 6.0, single concentration (lidocaine 300 μM, memantine 30 μM), geometric mean of 5, read-out: apparent affinity
[3] = pH 7.3, concentration (lidocaine 300 μM, memantine 30 μM)
[4] = pH 7.3, single concentration (lidocaine 300 μM, memantine 30 μM), geometric mean of 5, read-out: apparent affinity
[5] = pH 8.6, concentration (lidocaine 300 μM, memantine 30 μM)
[6] = pH 8.6, single concentration (lidocaine 300 μM, memantine 30 μM), geometric mean of 5, read-out: apparent affinity
[7] = pH=6.0, cc 300 mM, read-out: Apparent Affinity
[8] = pH=7.3, cc 300 mM, read-out: Apparent Affinity
[9] = pH=8.6, cc 300 mM, read-out: Apparent Affinity
[10] = pH 6.0, higher concentration: lidocaine 1000 μM, memantine 100 μM
[11] = pH 6.0, higher concentration: lidocaine 1000 μM, memantine 100 μM, read-out: apparent affinity
[12] = pH 7.3, higher concentration: lidocaine 1000 μM, memantine 100 μM
[13] = pH 7.3, higher concentration: lidocaine 1000 μM, memantine 100 μM, read-out: apparent affinity
[14] = pH 8.6, higher concentration: lidocaine 1000 μM, memantine 100 μM
[15] = pH 8.6, higher concentration: lidocaine 1000 μM, memantine 100 μM, read-out: apparent affinity

T1 sequence (P04775 whole entry): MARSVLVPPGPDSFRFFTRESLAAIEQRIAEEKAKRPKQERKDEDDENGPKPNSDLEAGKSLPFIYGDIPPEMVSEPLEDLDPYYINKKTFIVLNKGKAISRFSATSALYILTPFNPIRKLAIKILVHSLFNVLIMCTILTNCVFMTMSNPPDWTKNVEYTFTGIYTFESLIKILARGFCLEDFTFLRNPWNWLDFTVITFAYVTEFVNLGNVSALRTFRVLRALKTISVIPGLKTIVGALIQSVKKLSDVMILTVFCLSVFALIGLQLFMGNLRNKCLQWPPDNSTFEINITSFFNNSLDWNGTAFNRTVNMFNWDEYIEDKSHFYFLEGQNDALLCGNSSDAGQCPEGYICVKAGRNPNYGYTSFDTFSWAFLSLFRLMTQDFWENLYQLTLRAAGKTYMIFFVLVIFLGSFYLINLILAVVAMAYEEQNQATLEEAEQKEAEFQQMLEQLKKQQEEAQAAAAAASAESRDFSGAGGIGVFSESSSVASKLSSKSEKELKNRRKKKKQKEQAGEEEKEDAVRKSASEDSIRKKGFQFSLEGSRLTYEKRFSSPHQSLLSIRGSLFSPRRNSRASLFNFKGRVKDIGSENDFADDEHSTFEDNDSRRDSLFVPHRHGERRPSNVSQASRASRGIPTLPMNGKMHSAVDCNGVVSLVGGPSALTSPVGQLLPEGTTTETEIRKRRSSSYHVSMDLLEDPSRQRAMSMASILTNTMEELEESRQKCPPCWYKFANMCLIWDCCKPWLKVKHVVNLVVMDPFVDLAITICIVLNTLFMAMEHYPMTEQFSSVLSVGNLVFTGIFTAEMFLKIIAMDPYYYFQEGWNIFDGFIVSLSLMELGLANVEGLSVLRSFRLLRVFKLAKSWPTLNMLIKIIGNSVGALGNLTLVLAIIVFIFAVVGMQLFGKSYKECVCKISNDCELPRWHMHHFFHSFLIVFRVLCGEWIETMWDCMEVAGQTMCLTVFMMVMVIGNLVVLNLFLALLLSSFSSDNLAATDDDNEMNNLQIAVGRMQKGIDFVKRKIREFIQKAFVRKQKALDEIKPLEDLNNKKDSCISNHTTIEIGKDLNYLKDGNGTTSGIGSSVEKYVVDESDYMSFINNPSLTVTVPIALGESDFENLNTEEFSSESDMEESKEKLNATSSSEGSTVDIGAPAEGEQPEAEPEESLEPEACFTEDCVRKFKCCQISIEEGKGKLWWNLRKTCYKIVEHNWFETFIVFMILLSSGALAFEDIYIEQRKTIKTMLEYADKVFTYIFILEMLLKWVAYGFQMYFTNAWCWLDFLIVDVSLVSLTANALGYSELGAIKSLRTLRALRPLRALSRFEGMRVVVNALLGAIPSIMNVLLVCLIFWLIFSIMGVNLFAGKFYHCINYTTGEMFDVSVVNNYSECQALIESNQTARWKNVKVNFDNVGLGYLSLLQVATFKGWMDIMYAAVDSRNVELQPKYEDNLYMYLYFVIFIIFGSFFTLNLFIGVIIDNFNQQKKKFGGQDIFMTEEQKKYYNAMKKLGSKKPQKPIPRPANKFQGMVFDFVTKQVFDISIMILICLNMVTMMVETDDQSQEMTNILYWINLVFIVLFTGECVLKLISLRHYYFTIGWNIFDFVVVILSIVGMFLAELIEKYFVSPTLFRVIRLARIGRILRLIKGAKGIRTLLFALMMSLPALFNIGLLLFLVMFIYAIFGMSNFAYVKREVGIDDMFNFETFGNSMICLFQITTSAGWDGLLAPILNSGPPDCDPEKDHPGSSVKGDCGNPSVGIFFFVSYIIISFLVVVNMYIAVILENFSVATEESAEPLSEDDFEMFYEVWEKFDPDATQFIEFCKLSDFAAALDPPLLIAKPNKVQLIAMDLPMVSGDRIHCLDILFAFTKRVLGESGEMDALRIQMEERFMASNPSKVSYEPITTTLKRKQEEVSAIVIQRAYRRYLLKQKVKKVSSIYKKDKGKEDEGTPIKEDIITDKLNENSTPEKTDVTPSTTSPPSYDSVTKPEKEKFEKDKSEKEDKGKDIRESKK

## Nc1nnc(-c2cccc(Cl)c2Cl)c(N)n1 [lamotrigine]
  class of pH-dependence pattern (cluster analysis): Class A
pH 6.0/7.3, cc 300 mM
  Ratio Reversibility: 0.765
  Ratio Tau Offset: 1.075
  Ratio Tau Onset: 0.877
  log Ratio App Aff: -0.277
pH 6.0/8.6, cc 300 mM
  Ratio Reversibility: 0.930
  Ratio Tau Offset: 0.809
  Ratio Tau Onset: 0.713
  log Ratio App Aff: -0.398
[1]
  τoffset: 14.40 s
  τonset: 11.40 s
[2]
  Kd: 329 µM
pH 7.3/8.6, cc 300 mM
  Ratio Reversibility: 1.215
  Ratio Tau Offset: 0.753
  Ratio Tau Onset: 0.813
  log Ratio App Aff: -0.121
[3]
  τoffset: 13.40 s
  τonset: 13.00 s
[4]
  Kd: 622 µM
[5]
  τoffset: 17.80 s
  τonset: 16.00 s
[6]
  Kd: 821 µM
pH=6.0, cc 300 mM
  Reversibility: 0.74
[7]
  Kd: 329 µM
pH=7.3, cc 300 mM
  Reversibility: 0.96
[8]
  Kd: 622 µM
pH=8.6, cc 300 mM
  Reversibility: 0.79
[9]
  Kd: 821 µM

## CCN(CC)CC(=O)Nc1c(C)cccc1C [lidocaine]
  class of pH-dependence pattern (cluster analysis): Class A
[1]
  τoffset: 8.49 s
  τonset: 6.17 s
[10]
  τonset: 5.20 s
[11]
  Kd: 1670 µM
[2]
  Kd: 917 µM
[3]
  τoffset: 7.59 s
  τonset: 5.14 s
[12]
  τonset: 5.20 s
[13]
  Kd: 1030 µM
[4]
  Kd: 806 µM
[5]
  τoffset: 5.98 s
  τonset: 4.86 s
[14]
  τonset: 5.60 s
[15]
  Kd: 677 µM
[6]
  Kd: 515 µM
pH=6.0, cc 300 mM
  Reversibility: 0.66
[7]
  Kd: 917 µM
pH=6.0, cc 1000 mM, read-out: Apparent Affinity
  Kd: 1670 µM
[8]
  Kd: 806 µM
pH=7.3, cc 1000 mM, read-out: Apparent Affinity
  Kd: 1030 µM
[9]
  Kd: 515 µM
pH=8.6, cc 1000 mM, read-out: Apparent Affinity
  Kd: 677 µM

## CC12CC3CC(C)(C1)CC(N)(C3)C2 [memantine]
  class of pH-dependence pattern (cluster analysis): Class F
pH 6.0/7.3, cc 30 mM
  Ratio Reversibility: 0.946
  Ratio Tau Offset: 1.093
  Ratio Tau Onset: 0.877
  log Ratio App Aff: 0.255
pH 6.0/7.3, cc 100 mM
  Ratio Reversibility: 0.974
  Ratio Tau Offset: 0.656
  Ratio Tau Onset: 1.032
  log Ratio App Aff: 0.109
pH 6.0/8.6, cc 30 mM
  Ratio Reversibility: 1.464
  Ratio Tau Offset: 1.000
  Ratio Tau Onset: 0.688
  log Ratio App Aff: 0.915
pH 6.0/8.6, cc 100 mM
  Ratio Reversibility: 1.593
  Ratio Tau Offset: 0.550
  Ratio Tau Onset: 0.842
  log Ratio App Aff: 0.840
[1]
  τoffset: 23.60 s
  τonset: 12.80 s
[10]
  τoffset: 12.20 s
  τonset: 12.80 s
[11]
  Kd: 303 µM
[2]
  Kd: 394 µM
pH 7.3/8.6, cc 30 mM
  Ratio Reversibility: 1.547
  Ratio Tau Offset: 0.915
  Ratio Tau Onset: 0.785
  log Ratio App Aff: 0.661
pH 7.3/8.6, cc 100 mM
  Ratio Reversibility: 1.636
  Ratio Tau Offset: 0.838
  Ratio Tau Onset: 0.816
  log Ratio App Aff: 0.731
[3]
  τoffset: 21.60 s
  τonset: 14.60 s
[12]
  τoffset: 18.60 s
  τonset: 12.40 s
[13]
  Kd: 236 µM
[4]
  Kd: 219 µM
[5]
  τoffset: 23.60 s
  τonset: 18.60 s
[14]
  τoffset: 22.20 s
  τonset: 15.20 s
[15]
  Kd: 43.8 µM
[6]
  Kd: 47.9 µM
pH = 6.0 vs neutral, increased KD app = decreased apparent affinity
  KD app, effect of acidic medium: MEM,MEX,TOL↑
pH=6.0, cc 30 mM
  Reversibility: 0.82
pH=6.0, cc 30 mM, read-out: Apparent Affinity
  Kd: 394 µM
pH=6.0, cc 100 mM
  Reversibility: 0.89
pH=6.0, cc 100 mM, read-out: Apparent Affinity
  Kd: 303 µM
pH=7.3, cc 30 mM
  Reversibility: 0.86
pH=7.3, cc 30 mM, read-out: Apparent Affinity
  Kd: 219 µM
pH=7.3, cc 100 mM
  Reversibility: 0.92
pH=7.3, cc 100 mM, read-out: Apparent Affinity
  Kd: 236 µM
pH=8.6, cc 30 mM
  Reversibility: 0.56
pH=8.6, cc 30 mM, read-out: Apparent Affinity
  Kd: 47.9 µM
pH=8.6, cc 100 mM
  Reversibility: 0.56
pH=8.6, cc 100 mM, read-out: Apparent Affinity
  Kd: 43.8 µM
